Patent US20130143929A1, “FUNGICIDAL IMIDAZOLES” (EI DU PONT DE NEMOURS AND COMPANY, priority 2010, published 2013)
Marks after values point to notes of the source that are not given here.

Assays:
Assay type in all cases: in vivo
[1] = test system: Blumeria graminis f. sp. tritici (also known as Erysiphe graminis f. sp. tritici, the causal agent of wheat powdery mildew); assay: Test D: wheat powdery mildew, preventive spray on wheat seedlings, visual disease rating; conditions: for Test D rating (100 = 100% disease control, 0 = no disease control relative to the controls): wheat powdery mildew, preventive spray on wheat seedlings; for Test D rating (% disease control, wheat powdery mildew): no asterisk: standard test suspension concentration, 100 = 100% disease control, 0 = no control relative to controls
Outline: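 Compound suspended in acetone/water (50/50) with 250 ppm Trem 014 and sprayed to run-off on wheat seedlings (200 ppm ≈ 800 g/ha), then inoculated next day with spore dust. Disease rated visually after 8 days at 20 °C as % control relative to untreated plants (0-100).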

[2] = test system: Septoria tritici (the causal agent of wheat leaf blotch); assay: Test B: wheat leaf blotch, preventive spray on wheat seedlings, visual disease rating; conditions: for Test B rating (100 = 100% disease control, 0 = no disease control relative to the controls): wheat leaf blotch, preventive spray on wheat seedlings; for Test B rating (% disease control, wheat leaf blotch): no asterisk: standard test suspension concentration, 100 = 100% disease control, 0 = no control relative to controls
Outline: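 Wheat seedlings sprayed to run-off with compound suspension (acetone/water with 250 ppm Trem 014; 200 ppm ≈ 800 g/ha, some at 40 ppm), inoculated next day with Septoria tritici spores. 48 h saturated humidity at 24 °C, then 19 days at 20 °C; visual rating, 100 = full control.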

[3] = test system: Puccinia recondite f. sp. tritici (the causal agent of wheat leaf rust); assay: Test A: wheat leaf rust, preventive spray on wheat seedlings, visual disease rating; conditions: for Test A rating (100 = 100% disease control, 0 = no disease control relative to the controls): wheat leaf rust, preventive spray on wheat seedlings; for Test A rating (% disease control, wheat leaf rust): no asterisk: standard test suspension concentration, 100 = 100% disease control, 0 = no control relative to controls
Outline: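 Wheat seedlings were sprayed to run-off with compound suspended in acetone/water containing 250 ppm Trem 014 (200 ppm ≈ 800 g/ha; some at 40 ppm). Puccinia recondite spores were inoculated the next day. Plants were held 24 h saturated at 20° C, then 7 days at 20° C, and disease control was rated visually on a 0–100 scale against controls.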

[4] = test system: Botrytis cinerea (the causal agent of tomato Botrytis); assay: Test C: tomato Botrytis, preventive spray on tomato seedlings, visual disease rating; conditions: for Test C rating (100 = 100% disease control, 0 = no disease control relative to the controls): tomato Botrytis, preventive spray on tomato seedlings; for Test C rating (% disease control, tomato Botrytis): no asterisk: standard test suspension concentration, 100 = 100% disease control, 0 = no control relative to controls
Outline: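 Test suspension (acetone/water with 250 ppm Trem 014; 200 ppm equivalent to 800 g/ha) sprayed to run-off on tomato seedlings; B. cinerea spores inoculated next day. After 48 h saturated humidity at 20° C then 3 days at 24° C, disease rated visually as % control relative to untreated controls (0–100).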

[5] = asterisk: 40 ppm test suspension
[6] = no asterisk (standard test suspension concentration, not 40 ppm)

Row | SMILES | Test D rating (100 = 100% disease control, 0 = no disease control relative to the controls) [1, 5] | Test B rating (100 = 100% disease control, 0 = no disease control relative to the controls) [2, 5] | Test A rating (100 = 100% disease control, 0 = no disease control relative to the controls) [3, 5] | Test C rating (100 = 100% disease control, 0 = no disease control relative to the controls) [4, 5] | Test A rating (100 = 100% disease control, 0 = no disease control relative to the controls) [3, 6] [%] | other results
1 | Cc1nc(Br)c(C(O)c2ccc(F)cc2Br)n1-c1ccc(F)cc1F (stereo not drawn) [compound 309] | 64* % | 100* % | 100* % | 65* % | – | –
2 | Cc1nc(Br)c(C(O)c2ccc(F)cc2Cl)n1-c1c(F)cc(Cl)cc1F (stereo not drawn) [compound 116] | 0* % | 100* % | 99* % | 0* % | – | –
3 | Cc1ncc(C(O)c2c(F)cc(F)cc2F)n1-c1ccc(Cl)cc1Cl (stereo not drawn) [compound 361] | – | – | – | – | 95 | Test D rating (100 = 100% disease control, 0 = no disease control relative to the controls) [1, 6]: 0%; Test B rating (100 = 100% disease control, 0 = no disease control relative to the controls) [2, 6]: 15%; Test C rating (100 = 100% disease control, 0 = no disease control relative to the controls) [4, 6]: 9%
4 | Cc1cc(F)ccc1C(O)c1c(Br)nc(C)n1-c1c(F)cccc1Br (stereo not drawn) [compound 406] | – | – | – | – | – | Test D rating (% disease control, wheat powdery mildew) [1]: 56%; Test B rating (% disease control, wheat leaf blotch) [2]: 100%; Test A rating (% disease control, wheat leaf rust) [3]: 100%; Test C rating (% disease control, tomato Botrytis) [4]: 43%
5 | Cc1nc(Br)c(C(O)c2cccnc2)n1-c1c(F)cc(F)cc1F (stereo not drawn) [compound 182] | – | – | – | – | 68 | Test D rating (100 = 100% disease control, 0 = no disease control relative to the controls) [1, 6]: 21%; Test B rating (100 = 100% disease control, 0 = no disease control relative to the controls) [2, 6]: 100%; Test C rating (100 = 100% disease control, 0 = no disease control relative to the controls) [4, 6]: 0%
6 | COc1ccc(C(O)c2c(C)nc(Cl)n2-c2c(F)cccc2Cl)c(F)c1 (stereo not drawn) [compound 210] | 99* % | 100* % | – | 100* % | 100 | –
7 | Cc1nc(Br)c(C(O)c2ccc(F)cc2Cl)n1-c1ccc(F)cc1F (racemic) [compound 240] | 89* % | 100* % | 99* % | 99* % | – | –
8 | Cc1nc(Cl)c(C(O)c2ccc(F)cc2Cl)n1-c1c(F)cc(Cl)cc1F (stereo not drawn) [compound 117] | 0* % | 100* % | 99* % | 0* % | – | –
9 | COc1ccc(C(O)c2c(Br)nc(Br)n2-c2c(F)cccc2F)c(Cl)c1 (racemic) [compound 286] | 97* % | 100* % | 100* % | 100* % | – | –
10 | Cc1nc(Cl)c(C(O)c2ccc(F)cc2Br)n1-c1c(F)cc(F)cc1Br (stereo not drawn) [compound 70] | 43* % | 100* % | 100* % | 99* % | – | –
11 | Cc1cc(F)ccc1C(O)c1cnc(C)n1-c1ccc(F)cc1Cl (stereo not drawn) [compound 395] | – | – | – | – | – | Test D rating (% disease control, wheat powdery mildew) [1]: 35%; Test B rating (% disease control, wheat leaf blotch) [2]: 100%; Test A rating (% disease control, wheat leaf rust) [3]: 99%; Test C rating (% disease control, tomato Botrytis) [4]: 21%
12 | OC(c1ccc(F)cc1F)c1c(Cl)nc(Cl)n1-c1ccc(F)cc1F (single isomer, unassigned) [compound 78] | – | – | – | – | 100 | Test D rating (100 = 100% disease control, 0 = no disease control relative to the controls) [1, 6]: 82%; Test B rating (100 = 100% disease control, 0 = no disease control relative to the controls) [2, 6]: 100%; Test C rating (100 = 100% disease control, 0 = no disease control relative to the controls) [4, 6]: 99%
